# Literature values, collected in patent US20140230258A1, “COMPACT HAND HELD DEVICE” (The Gillette Company, priority 2013, published 2014).
# Details: organism not stated
smiles,measurement,value
"CCCCCCCCn1sc(Cl)c(Cl)c1=O [4,5-dichloro-2-n-octyl-4-isothiazolin-3-one]",MIC,about 50 ppm
